Series [1] deals with T1, cloned dopamine human D2Long receptor (Homo sapiens, UniProt P14416).
T1 construct: purchased Research Biochemicals International (Natick, Mass.); host or cells: Sf9 cells or CHO cells
In words: Competitive binding at cloned dopamine D2 receptor ([3H]raclopride). To be noted: 2 nM [3H]raclopride, read-out: dissociation constant, K, at D2 receptor. On the procedure:
(§1) Human dopamine D1 receptors (in Sf9 cells or COS cells), human dopamine D2Long receptors (in Sf9 cells or CHO cells), human alpha-adrenoceptor-2A receptors, and human muscarinic M1 receptors, all expressed in Sf9 cells, were purchased from Research Biochemicals International (Natick, Mass.). The frozen membranes containing the receptors were directly suspended at approximately 100 μg protein/ml and the cell suspension was homogenized for 5 s (Polytron, setting 5) without any further washing.

In series [2] the target is muscarinic cholinergic receptor (rat cortex tissue). In words: Competitive binding at muscarinic receptor ([3H]QNB). The following applies: read-out: dissociation constant at muscarinic cholinergic receptor.
Experimental: (§2) Rat brains were purchased from Pel-Freez (Rogers, Ark.) and stored at −70° C. […] Before each experiment, the striatum or the frontal cerebral cortex (free of myelin) was dissected from the partly thawed rat brain on a glass plate on a bed of dry ice. The dissected tissue was suspended in buffer (50 mM Tris-HCl, pH 7.4 at 20° C., 1 mM EDTA, 5 mM KCl, 120 mM NaCl, 1.5 mM CaCl2, 4 mM MgCl2) at 4 mg original wet weight per ml suspension.
(§3) The competition between a compound and a [^3H]ligand for binding at the various receptors was done as follows. Each incubation tube (12×75 mm glass) received, in the following order, 0.5 ml buffer (50 mM Tris-HCl, pH 7.4 at 20° C., 1 mM EDTA, 5 mM KCl, 120 mM NaCl, 1.5 mM CaCl2, 4 mM MgCl2) containing a range of drug concentrations (final concentrations of 0.01 nM to 1,000 nM) or an excess of a second drug in order to define nonspecific binding, followed by the addition of 0.25 ml [^3H]ligand, and 0.25 ml of homogenized tissue suspension. […] After filtering the incubate, the filter mat was rinsed with buffer for 15 s (7.5 ml buffer). The filters were pushed out and placed in scintillation minivials (Packard Instruments, Chicago, Ill.).
(§4) Competition at the muscarinic receptors was done using either the cloned M1 receptors or the rat frontal cortex, 0.6 nM [^3H]QNB, and using 200 nM atropine to define nonspecific binding. […]
Series [3] has as its target T2, serotonin-1A receptor (rat frontal cortex tissue) (Rattus norvegicus, UniProt P19327).
T2 construct: tissue Pel-Freez (Rogers, Ark.); host or cells: rat frontal cerebral cortex
T2 sequence (P19327 1-422): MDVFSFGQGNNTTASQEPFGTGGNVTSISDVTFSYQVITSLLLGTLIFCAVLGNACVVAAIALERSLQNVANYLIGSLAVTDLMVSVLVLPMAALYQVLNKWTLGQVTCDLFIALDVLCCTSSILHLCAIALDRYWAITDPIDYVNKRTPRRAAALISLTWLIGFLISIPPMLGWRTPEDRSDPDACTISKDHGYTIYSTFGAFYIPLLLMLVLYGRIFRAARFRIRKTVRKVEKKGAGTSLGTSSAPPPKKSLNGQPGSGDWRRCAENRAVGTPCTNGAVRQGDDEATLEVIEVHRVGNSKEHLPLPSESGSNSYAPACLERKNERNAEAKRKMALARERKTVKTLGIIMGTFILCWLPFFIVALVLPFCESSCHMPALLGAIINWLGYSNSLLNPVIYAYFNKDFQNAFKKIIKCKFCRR
The series can be described thus: Competitive binding at serotonin-1A receptor ([3H]8-OH-DPAT), rat tissue. To be noted: read-out: dissociation constant at serotonin-1A receptor.
Experimental: as §2, §3, §4

The target in series [4] is T3, dopamine D1 receptor (rat striatal tissue) (Rattus norvegicus, UniProt P18901).
T3 construct: tissue Pel-Freez (Rogers, Ark.); host or cells: rat brain striatum
The series can be described thus: Competitive binding at dopamine D1 receptor ([3H]SCH23390), rat tissue. To be noted: read-out: dissociation constant at dopamine D1 receptor.
Experimental: as §2, §3, §4

Series [5] addresses alpha-1-adrenoceptor (rat cortex). In words: Competitive binding at alpha-1-adrenoceptor ([3H]prazosin). To be noted: read-out: dissociation constant at alpha-1-adrenoceptor.
Experimental: as §2, §3, §4
Series [6] has as its target T4, alpha-2-adrenoceptor (cloned in Sf9 cells) (Homo sapiens, UniProt P08913).
T4 construct: purchased Research Biochemicals International (Natick, Mass.); host or cells: Sf9 cells
T4 sequence (P08913 1-465): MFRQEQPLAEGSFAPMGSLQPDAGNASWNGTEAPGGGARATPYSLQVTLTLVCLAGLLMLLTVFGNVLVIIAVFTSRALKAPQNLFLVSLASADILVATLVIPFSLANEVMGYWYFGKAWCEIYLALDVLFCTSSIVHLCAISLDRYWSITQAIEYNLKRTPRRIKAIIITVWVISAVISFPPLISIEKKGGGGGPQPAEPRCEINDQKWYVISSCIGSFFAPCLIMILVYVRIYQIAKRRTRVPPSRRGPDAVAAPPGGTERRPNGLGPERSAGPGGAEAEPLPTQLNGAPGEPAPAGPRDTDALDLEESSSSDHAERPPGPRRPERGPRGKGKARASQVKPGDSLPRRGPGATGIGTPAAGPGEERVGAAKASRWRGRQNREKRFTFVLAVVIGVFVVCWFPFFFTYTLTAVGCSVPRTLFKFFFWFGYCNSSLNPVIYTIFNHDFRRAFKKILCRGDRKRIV
The series can be described thus: Competitive binding at alpha-2-adrenoceptor ([3H]yohimbine). The following applies: read-out: dissociation constant at alpha-2-adrenoceptor. On the procedure:
as §1

Series [7] addresses T5, histamine H1 receptor (rat cortex) (Rattus norvegicus, UniProt P31390).
T5 construct: tissue Pel-Freez (Rogers, Ark.); host or cells: rat cortex
In words: Competitive binding at histamine H1 receptor. The following applies: read-out: dissociation constant at histamine H1 receptor.
Experimental: as §3

Series [8] has as its target T6, cloned dopamine D2 receptor (Homo sapiens, UniProt P14416).
T6 construct: purchased Research Biochemicals International (Natick, Mass.); host or cells: Sf9 cells or CHO cells
In words: Dissociation from the cloned dopamine D2 receptor. The class given is binding.

Series [9] deals with T7, dopamine D2 receptors (Rattus norvegicus, UniProt P61169).
T7 construct: from tissue; host or cells: striatum of living Sprague-Dawley rats
The series can be described thus: In vivo D2 occupancy ([3H]raclopride, striatum). To be noted: for receptor occupancy at 20 mg/kg: po, oral 20 mg/kg, rats. On the procedure: Sprague-Dawley rats (each 250 g) received an oral dose of test compound of 20 mg/kg by gavage, using 2 ml per gavage feeding. The test compound solution was prepared as follows: 20 mg of test compound was added to 8 ml saline (0.9% NaCl), followed by the addition of a few drops of 2% lactic acid and back titration of the suspension to pH 5 using 0.1 N NaOH. A fine particulate suspension was used for gavage. Each rat received 2 ml of the suspension over a period of 5 minutes. […] The D2 occupancy in the striatum was calculated.

The subject of series [10] is catalepsy. The series can be described thus: Catalepsy (horizontal bar). The class given is in vivo. To be noted: up to 60 mg/kg in mice. An excerpt: The front paws of the animal were placed on a horizontal bar. Control animals quickly moved off the bar. Cataleptic animals held on to the bar for up to 15 seconds or more.
Series [11] concerns the target sigma receptor (rat striatal tissue) (Rattus norvegicus, UniProt Q9R0C9). In words: biochemical.
Experimental: as §2, §3, §4
In series [12] the target is T8, HERG channel receptor (Rattus norvegicus, UniProt O08962).
T8 sequence (O08962 1-1163): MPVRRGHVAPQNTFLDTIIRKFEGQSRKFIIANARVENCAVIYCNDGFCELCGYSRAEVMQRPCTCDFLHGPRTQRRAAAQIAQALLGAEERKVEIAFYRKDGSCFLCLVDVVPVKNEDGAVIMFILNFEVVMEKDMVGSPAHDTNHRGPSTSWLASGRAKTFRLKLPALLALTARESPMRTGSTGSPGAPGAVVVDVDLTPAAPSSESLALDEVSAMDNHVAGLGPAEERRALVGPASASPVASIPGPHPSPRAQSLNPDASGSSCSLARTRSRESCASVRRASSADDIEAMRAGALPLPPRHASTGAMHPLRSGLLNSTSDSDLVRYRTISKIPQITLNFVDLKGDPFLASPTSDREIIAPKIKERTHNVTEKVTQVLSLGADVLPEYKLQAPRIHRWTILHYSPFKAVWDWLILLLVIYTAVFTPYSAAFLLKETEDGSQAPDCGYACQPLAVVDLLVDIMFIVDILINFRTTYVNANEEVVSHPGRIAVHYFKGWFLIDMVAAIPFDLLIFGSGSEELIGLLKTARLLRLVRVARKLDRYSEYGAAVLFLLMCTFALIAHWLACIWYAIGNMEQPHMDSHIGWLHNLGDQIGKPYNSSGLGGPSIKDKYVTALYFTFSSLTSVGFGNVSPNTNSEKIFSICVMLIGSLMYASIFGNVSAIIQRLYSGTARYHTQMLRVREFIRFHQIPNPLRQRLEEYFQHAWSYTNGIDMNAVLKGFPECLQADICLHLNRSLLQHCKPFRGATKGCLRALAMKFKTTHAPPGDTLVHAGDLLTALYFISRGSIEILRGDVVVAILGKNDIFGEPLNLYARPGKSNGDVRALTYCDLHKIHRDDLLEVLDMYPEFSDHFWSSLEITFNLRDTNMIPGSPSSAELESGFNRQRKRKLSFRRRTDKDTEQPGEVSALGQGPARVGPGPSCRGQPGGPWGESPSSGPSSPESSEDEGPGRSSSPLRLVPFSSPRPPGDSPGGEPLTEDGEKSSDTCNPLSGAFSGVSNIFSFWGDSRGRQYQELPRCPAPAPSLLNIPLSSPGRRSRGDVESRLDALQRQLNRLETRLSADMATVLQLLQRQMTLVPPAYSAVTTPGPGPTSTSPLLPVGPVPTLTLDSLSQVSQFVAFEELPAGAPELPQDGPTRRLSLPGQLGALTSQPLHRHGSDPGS
The series can be described thus: Competitive binding at HERG channel ([3H]dofetilide).
Experimental: as §3

The target in series [13] is rat brain or human brain dopamine D2 receptor. To be noted: read-out: affinity (dissociation constant) of dopamine at the high-affinity state of D2; cited from earlier work.

A word on the melting point: it is the temperature, or range, at which the solid turns liquid.

The structures appear in SMILES notation. Several values for one entry are separate records, joined by “and”; a condition that tells them apart may be missing. Equal values may be shown once.

T7 sequence (P61169 whole entry): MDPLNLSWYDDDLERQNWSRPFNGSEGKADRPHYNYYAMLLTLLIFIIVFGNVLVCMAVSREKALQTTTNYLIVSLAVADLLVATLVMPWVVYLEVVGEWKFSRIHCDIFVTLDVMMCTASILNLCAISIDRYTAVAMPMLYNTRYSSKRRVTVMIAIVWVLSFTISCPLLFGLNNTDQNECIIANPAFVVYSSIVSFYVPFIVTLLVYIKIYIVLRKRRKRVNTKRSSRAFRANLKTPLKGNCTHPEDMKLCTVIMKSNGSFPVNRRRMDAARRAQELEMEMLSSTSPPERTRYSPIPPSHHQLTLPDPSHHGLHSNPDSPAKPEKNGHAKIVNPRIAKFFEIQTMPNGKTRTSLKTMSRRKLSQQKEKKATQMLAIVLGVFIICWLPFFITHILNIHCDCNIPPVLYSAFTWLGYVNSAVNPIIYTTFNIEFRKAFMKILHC
T1 sequence (P14416 whole entry): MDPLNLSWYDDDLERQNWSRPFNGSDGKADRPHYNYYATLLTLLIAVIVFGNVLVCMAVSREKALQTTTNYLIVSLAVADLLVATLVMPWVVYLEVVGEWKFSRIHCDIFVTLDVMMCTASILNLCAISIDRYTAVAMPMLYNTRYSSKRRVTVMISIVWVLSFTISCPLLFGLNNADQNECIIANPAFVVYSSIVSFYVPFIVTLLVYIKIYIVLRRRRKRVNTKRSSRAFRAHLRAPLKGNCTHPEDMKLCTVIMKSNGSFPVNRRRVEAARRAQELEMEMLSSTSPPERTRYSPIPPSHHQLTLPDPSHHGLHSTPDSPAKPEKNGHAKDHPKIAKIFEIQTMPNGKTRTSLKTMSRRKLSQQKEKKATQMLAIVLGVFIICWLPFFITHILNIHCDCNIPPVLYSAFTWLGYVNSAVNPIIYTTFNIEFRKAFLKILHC
sigma receptor (rat striatal tissue), sequence (Q9R0C9 whole entry): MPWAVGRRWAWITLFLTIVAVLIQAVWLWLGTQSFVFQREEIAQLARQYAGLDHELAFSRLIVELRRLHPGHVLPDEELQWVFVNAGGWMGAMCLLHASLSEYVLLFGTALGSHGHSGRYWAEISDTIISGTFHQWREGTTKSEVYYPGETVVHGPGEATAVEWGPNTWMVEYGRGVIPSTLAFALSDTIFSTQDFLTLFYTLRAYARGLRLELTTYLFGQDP
T3 sequence (P18901 whole entry): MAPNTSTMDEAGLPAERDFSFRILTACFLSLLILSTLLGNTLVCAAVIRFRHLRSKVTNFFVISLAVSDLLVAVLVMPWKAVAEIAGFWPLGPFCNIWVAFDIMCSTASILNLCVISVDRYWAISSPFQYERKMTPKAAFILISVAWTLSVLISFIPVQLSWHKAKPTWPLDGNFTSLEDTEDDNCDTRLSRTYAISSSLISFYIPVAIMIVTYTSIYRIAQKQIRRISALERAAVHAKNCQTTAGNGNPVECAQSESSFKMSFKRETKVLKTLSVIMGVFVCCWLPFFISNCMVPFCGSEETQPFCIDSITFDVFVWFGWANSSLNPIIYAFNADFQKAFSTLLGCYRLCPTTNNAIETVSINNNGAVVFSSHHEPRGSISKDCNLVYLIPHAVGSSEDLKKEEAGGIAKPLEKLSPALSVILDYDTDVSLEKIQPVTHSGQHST
T6 sequence (P14416 whole entry): as the sequence (P14416 whole entry) above
T5 sequence (P31390 whole entry): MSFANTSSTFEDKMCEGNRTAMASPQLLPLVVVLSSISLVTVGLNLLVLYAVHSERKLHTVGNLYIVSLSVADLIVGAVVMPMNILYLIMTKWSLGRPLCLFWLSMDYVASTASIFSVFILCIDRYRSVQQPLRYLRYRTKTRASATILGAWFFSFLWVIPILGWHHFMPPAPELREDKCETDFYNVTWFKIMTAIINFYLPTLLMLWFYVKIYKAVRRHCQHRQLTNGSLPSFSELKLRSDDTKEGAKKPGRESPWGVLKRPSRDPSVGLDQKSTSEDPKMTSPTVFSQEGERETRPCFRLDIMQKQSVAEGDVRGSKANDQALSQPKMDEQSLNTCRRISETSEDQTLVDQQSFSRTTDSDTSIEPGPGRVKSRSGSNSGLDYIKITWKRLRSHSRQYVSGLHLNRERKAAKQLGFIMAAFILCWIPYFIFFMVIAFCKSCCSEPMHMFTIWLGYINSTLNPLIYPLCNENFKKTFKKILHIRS

In turn, `COc1cccc(C(=O)CCCN2CCC(O)(c3ccc(Cl)cc3)CC2)c1` [Example 2(a), 4-[4-(4-chlorophenyl)-4-hydroxypiperidin-1-yl]-1-(3-methoxyphenyl)butan-1-one] returned a melting point of 127 to 129 °C. Besides, the Ki in series [1] was found to be 0.14 ± 0.008 µM. Further, the Ki in series [2] stood at 0.57 µM. Moreover, in series [3], the Ki came out at 12 µM. The Ki in series [4] is 11 µM. Moreover, the Ki in [5] amounted to 1.07 µM. Further, the Ki in series [6] stood at 9.5 µM. For the same molecule, the Ki in series [7] stood at 1.14 µM. In addition, the “time at which dissociation from cloned D2 receptor was 50% completed” value in series [8] is 23 s. In [9] (30 min), this molecule came in with a receptor occupancy at 20 mg/kg of 39%. Moreover, the receptor occupancy at 20 mg/kg in series [9] (1 hour) turned out to be 63%. In addition, the receptor occupancy at 20 mg/kg in [9] (2 hour) worked out at 24%. The molecule also registered a receptor occupancy at 20 mg/kg in [9] (3 hour) of 28%. The molecule further gave a receptor occupancy at 10 mg/kg in series [9] (sc, 10 mg/kg subcutaneous, after one hour, Sprague Dawley rats) of 61%. In addition, the catalepsy entry in series [10] is on record as “did not result in any catalepsy”. For the same molecule, the Ki in series [11] turned out to be 0.2 µM. Further, the Ki in [12] came out at 2.6 µM.

On to `COc1cccc(C(=O)CCCN2CCC(O)(c3ccccc3)CC2)c1` [Example 2(b), 4-[4-phenyl-4-hydroxypiperidin-1-yl]-1-(3-methoxyphenyl)butan-1-one, reference compound], for which the Ki in series [1] was found to be 0.66 µM.

On to `NCCc1ccc(O)c(O)c1` [dopamine], for which the Kd in series [13] was ~0.00175 µM and 0.00175 µM.

Source of the values: US20100004289A1, “SUBSTITUTED BUTYROPHENONE DERIVATIVES” (priority 2005, published 2010).
